# Measured values reported in patent US5604234A, “Substituted thiol macrolactam immunomodulators” (Abbott Laboratories, priority 1995, dated 1997).
# pIC50: −log10 of the molar value.
# Tested on: human mixed lymphocyte reaction (MLR)
# Test: human mixed lymphocyte reaction (MLR), serum free variation
# Format: cell-based
# Conditions: Homo sapiens, Lymphocyte, serum-free medium AIM V, Table 3
# Procedure: In vitro Assay of Biological Activity (Serum Free MLR)
# The in viitro immunosuppressant activity of the compounds of the present invention can also be determined using a variation of the human mixed lymphocyte reaction (MLR) assay described by Kino, T. et al. in Transplantation Proceedings, XIX(5):36-39, Suppl. 6 (1987). In this assay, the cell culture was performed in a serum-free medium, AIM V (GibcoBRL Life Technologies, Grand Island, N.Y.), instead of the usual RPMI 1640 plus 10% heat-inactivated fetal bovine serum medium. The final cell concentrations of the responder and stimulator peripheral blood mononuclear cells were, respectively, 5×10^5/mL and 2×10^6/mL of cells pooled from four donors.
row,Compound,pIC50
1,"CC[C@@H]1/C=C(\C)C[C@H](C)C[C@H](OC)[C@H]2O[C@@](O)(C(=O)C(=O)N3CCCC[C@H]3C(=O)O[C@H](/C(C)=C/[C@@H]3CC[C@H]([S+]([O-])CCC(=O)OC(C)C)[C@H](OC)C3)[C@H](C)[C@@H](O)CC1=O)[C@H](C)C[C@@H]2OC (single isomer, unassigned) [Example 65]",7.49
2,"CCC1C=C(C)CC(C)CC(OC)C2OC(O)(C(=O)C(=O)N3CCCCC3C(=O)OC(C(C)=CC3CCC(S)C(OC)C3)C(C)C(O)CC1=O)C(C)CC2OC (stereo not drawn) [Example 8A, 32-epi-Thiol Ascomycin]",9.12
3,CC[C@@H]1/C=C(\C)C[C@H](C)C[C@H](OC)[C@H]2O[C@@](O)(C(=O)C(=O)N3CCCC[C@H]3C(=O)O[C@H](/C(C)=C/[C@@H]3CC[C@H](S(=O)(=O)CCC(=O)O)[C@H](OC)C3)[C@H](C)[C@@H](O)CC1=O)[C@H](C)C[C@@H]2OC [Example 78],7.52
4,CCC1C=C(C)CC(C)CC(OC)C2OC(O)(C(=O)C(=O)N3CCCCC3C(=O)OC(C(C)=CC3CCC(SCCC(=O)OC4CCCCC4)C(OC)C3)C(C)C(O)CC1=O)C(C)CC2OC (stereo not shown) [Example 14],8.21
5,CC[C@@H]1/C=C(\C)C[C@H](C)C[C@H](OC)[C@H]2O[C@@](O)(C(=O)C(=O)N3CCCC[C@H]3C(=O)O[C@H](/C(C)=C/[C@@H]3CC[C@H]([S+]([O-])CC(=O)O)[C@H](OC)C3)[C@H](C)[C@@H](O)CC1=O)[C@H](C)C[C@@H]2OC (stereo partly shown) [Example 74],7.24
6,CCC1C=C(C)CC(C)CC(OC)C2OC(O)(C(=O)C(=O)N3CCCCC3C(=O)OC(C(C)=CC3CCC(SCC(=O)OCCN(C)C)C(OC)C3)C(C)C(O)CC1=O)C(C)CC2OC (stereo not shown) [Example 36],7.62
7,CCC1C=C(C)CC(C)CC(OC)C2OC(O)(C(=O)C(=O)N3CCCCC3C(=O)OC(C(C)=CC3CCC(SCCC(=O)OCCOC)C(OC)C3)C(C)C(O)CC1=O)C(C)CC2OC (stereo not shown) [Example 11],8.68
8,CCC1C=C(C)CC(C)CC(OC)C2OC(O)(C(=O)C(=O)N3CCCCC3C(=O)OC(C(C)=CC3CCC(SCC(=O)OCCO)C(OC)C3)C(C)C(O)CC1=O)C(C)CC2OC (stereo not shown) [Example 34],7.22
9,CCC1C=C(C)CC(C)CC(OC)C2OC(O)(C(=O)C(=O)N3CCCCC3C(=O)OC(C(C)=CC3CCC(SCC(=O)OC(C)C)C(OC)C3)C(C)C(O)CC1=O)C(C)CC2OC (stereo not shown) [Example 32],8.19
10,CC[C@@H]1/C=C(\C)C[C@H](C)C[C@H](OC)[C@H]2O[C@@](O)(C(=O)C(=O)N3CCCC[C@H]3C(=O)O[C@H](/C(C)=C/[C@@H]3CC[C@H](SCC(C)=O)[C@H](OC)C3)[C@H](C)[C@@H](O)CC1=O)[C@H](C)C[C@@H]2OC [Example 80],8.37
11,CCC1C=C(C)CC(C)CC(OC)C2OC(O)(C(=O)C(=O)N3CCCCC3C(=O)OC(C(C)=CC3CCC(SCC(=O)OC(C)(C)C)C(OC)C3)C(C)C(O)CC1=O)C(C)CC2OC (stereo not shown) [Example 29],8.74
12,CCC1C=C(C)CC(C)CC(OC)C2OC(O)(C(=O)C(=O)N3CCCCC3C(=O)OC(C(C)=CC3CCC(SCCC(=O)N(C)O)C(OC)C3)C(C)C(O)CC1=O)C(C)CC2OC (stereo not shown) [Example 25],9.70
13,C=CCS[C@H]1CC[C@@H](/C=C(\C)[C@H]2OC(=O)[C@@H]3CCCCN3C(=O)C(=O)[C@]3(O)O[C@H]([C@@H](OC)C[C@@H](C)C/C(C)=C/[C@@H](CC)C(=O)C[C@H](O)[C@H]2C)[C@@H](OC)C[C@H]3C)C[C@H]1OC [Example 79],7.85
14,CC[C@@H]1/C=C(\C)C[C@H](C)C[C@H](OC)[C@H]2O[C@@](O)(C(=O)C(=O)N3CCCC[C@H]3C(=O)O[C@H](/C(C)=C/[C@@H]3CC[C@H](SCC(C)=NNC(N)=O)[C@H](OC)C3)[C@H](C)[C@@H](O)CC1=O)[C@H](C)C[C@@H]2OC [Example 81A],8.89
15,"CC[C@@H]1/C=C(\C)C[C@H](C)C[C@H](OC)[C@H]2O[C@@](O)(C(=O)C(=O)N3CCCC[C@H]3C(=O)O[C@H](/C(C)=C/[C@@H]3CC[C@H]([S+]([O-])CC(=O)OCc4ccccc4)[C@H](OC)C3)[C@H](C)[C@@H](O)CC1=O)[C@H](C)C[C@@H]2OC (single isomer, unassigned) [Example 54]",8.06

# Continued, values first:
row,pIC50,Compound
1,8.60,CC[C@@H]1/C=C(\C)C[C@H](C)C[C@H](OC)[C@H]2O[C@@](O)(C(=O)C(=O)N3CCCC[C@H]3C(=O)O[C@H](/C(C)=C/[C@@H]3CC[C@H](SC(=O)c4ccccc4NC(C)=O)[C@H](OC)C3)[C@H](C)[C@@H](O)CC1=O)[C@H](C)C[C@@H]2OC [Example 118]
2,8.52,CC[C@@H]1/C=C(\C)C[C@H](C)C[C@H](OC)[C@H]2O[C@@](O)(C(=O)C(=O)N3CCCC[C@H]3C(=O)O[C@H](/C(C)=C/[C@@H]3CC[C@H](SC(=O)c4ccccc4C#N)[C@H](OC)C3)[C@H](C)[C@@H](O)CC1=O)[C@H](C)C[C@@H]2OC [Example 119]
3,8.39,CC[C@@H]1/C=C(\C)C[C@H](C)C[C@H](OC)[C@H]2O[C@@](O)(C(=O)C(=O)N3CCCC[C@H]3C(=O)O[C@H](/C(C)=C/[C@@H]3CC[C@H](SC(=O)C(=O)OC)[C@H](OC)C3)[C@H](C)[C@@H](O)CC1=O)[C@H](C)C[C@@H]2OC [Example 111]
4,8.55,CC[C@@H]1/C=C(\C)C[C@H](C)C[C@H](OC)[C@H]2O[C@@](O)(C(=O)C(=O)N3CCCC[C@H]3C(=O)O[C@H](/C(C)=C/[C@@H]3CC[C@H](SC(=O)[C@H](C)O)[C@H](OC)C3)[C@H](C)[C@@H](O)CC1=O)[C@H](C)C[C@@H]2OC [Example 123]
5,9.59,CCCNC(=O)S[C@H]1CC[C@@H](/C=C(\C)[C@H]2OC(=O)[C@@H]3CCCCN3C(=O)C(=O)[C@]3(O)O[C@H]([C@@H](OC)C[C@@H](C)C/C(C)=C/[C@@H](CC)C(=O)C[C@H](O)[C@H]2C)[C@@H](OC)C[C@H]3C)C[C@H]1OC [Example 92]
6,8.62,"CC[C@@H]1/C=C(\C)C[C@H](C)C[C@H](OC)[C@H]2O[C@@](O)(C(=O)C(=O)N3CCCC[C@H]3C(=O)O[C@H](/C(C)=C/[C@@H]3CC[C@H](SC(=O)C(C)NC(C)=O)[C@H](OC)C3)[C@H](C)[C@@H](O)CC1=O)[C@H](C)C[C@@H]2OC (single isomer, unassigned) [Example 117A]"
7,7.19,CC[C@@H]1/C=C(\C)C[C@H](C)C[C@H](OC)[C@H]2O[C@@](O)(C(=O)C(=O)N3CCCC[C@H]3C(=O)O[C@H](/C(C)=C/[C@@H]3CC[C@H](SCC(C)=NOC)[C@H](OC)C3)[C@H](C)[C@@H](O)CC1=O)[C@H](C)C[C@@H]2OC [Example 82]
8,8.60,CCOC(CNC(=O)S[C@H]1CC[C@@H](/C=C(\C)[C@H]2OC(=O)[C@@H]3CCCCN3C(=O)C(=O)[C@]3(O)O[C@H]([C@@H](OC)C[C@@H](C)C/C(C)=C/[C@@H](CC)C(=O)C[C@H](O)[C@H]2C)[C@@H](OC)C[C@H]3C)C[C@H]1OC)OCC [Example 104]
9,8.92,CC[C@@H]1/C=C(\C)C[C@H](C)C[C@H](OC)[C@H]2O[C@@](O)(C(=O)C(=O)N3CCCC[C@H]3C(=O)O[C@H](/C(C)=C/[C@@H]3CC[C@H](SC(=O)c4ccccn4)[C@H](OC)C3)[C@H](C)[C@@H](O)CC1=O)[C@H](C)C[C@@H]2OC [Example 120]

# Same assay, conditions: serum-free medium AIM V, Table 3
row,pIC50,Compound
1,7.17,CC[C@@H]1/C=C(\C)C[C@H](C)C[C@H](OC)[C@H]2O[C@@](O)(C(=O)C(=O)N3CCCC[C@H]3C(=O)O[C@H](/C(C)=C/[C@@H]3CC[C@H](SCC(C)=NO)[C@H](OC)C3)[C@H](C)[C@@H](O)CC1=O)[C@H](C)C[C@@H]2OC [Example 83B]
